Data from EP2241565A1, “Aurora kinase inhibitors compounds” (Universität Leipzig, priority 2009, dated 2010).
Entries after “also recorded” stand apart in the source; their conditions may differ.

Experiments:
EGFR = biological target: T1, EGFR (Homo sapiens, UniProt P00533); assay: RTK-Assay (ELISA, chemiluminescence); assay type: biochemical
T1 construct: GST (N); purchased Biomol
Procedure: (§1) To determine the IC50 of receptor-tyrosine-kinase an assay based on the ELISA-principle using kinases from Biomol (N-terminally fused to GST), POD-coupled antibody from Calbiochem (PY20) and BM chemiluminescence ELISA substrate from Roche was followed.
(§2) In short, a white 96 wells microplate was incubated overnight with 100 µl/well of the substrate solution (poly-Glu-Tyr diluted with PBS to 100 µg/ml) at 4 °C. The solution was removed and the plate was washed twice for 2 min with PBS-T. Afterwards the kinase solution (50 µl/well)( KDR (VEGFR2), 5 ng; Flt4 (VEGFR3), 20 ng; EGFR, 5 ng; IGFR, 15 ng; FGFR, 10 ng and Tie2, 20 ng) and the inhibitor solution (25 µl/well) were added to each well. To perform positive and negative control, 5% aqueous DMSO (25 µl/well) were used instead of inhibitor solution. Addition of ATP solution (25 µl/well) started the reaction, whereas 40 mM MnCl2 solution (25 µl/well) was added to the negative control instead of ATP. After incubation under mild shaking conditions for 30 min at rt the plate was washed with PBS-T (3 x 2 min) and subsequently incubated with antibody solution (anti-Phosphotyrosine-antibody (POD-coupled) diluted 1:10.000 in PBS-T + 0,2% (m/v) BSA)(100 µl/well) for 1 h again while shaking. In the end the plate was washed with PBS-T (3x5 min) and provided with the chemiluminescence substrate (50 µl/well). After 3 min the occurring luminescence was measured using a luminometer. A positive control was measured without inhibitor to determine the activity of the kinase, a negative control without inhibitor and ATP to abstract the background signal from the results. For determination of IC50 values, the relative luminescence units per second (RLU/s) were blotted against the inhibitor concentrations. In doing so each concentration measurement was done triplicate and at least 5 different inhibitor concentrations were used to determine IC50 value.
(§3) This assay is based on the ELISA-principle using kinases from Biomol (N-terminally fused to GST), POD-coupled antibody from Calbiochem (PY20) and BM chemiluminescence ELISA substrate from Roche.
(§4) Each well of a 96 well microplate (white, flat bottom, Greiner, Lumitrac600) was covered with a kinase polypeptide substrate containing glutamate and tyrosine. The substrate was incubated with a kinase, a defined inhibitor concentration and ATP. After kinase inhibitor depending phosphorylation of the substrate a POD-coupled antibody was added that selectively binds to phosphorylated tyrosine. Finally, a chemiluminescence reagent was added and light emission measured using an Orion Microplate Luminometer (Berthold).
(§5) The detected counts correlate directly with the amount of phosphorylated tyrosine and indirectly with the activity of the inhibitor.
(§6) A positive control was measured without inhibitor to determine the activity of the kinase, a negative control without inhibitor and ATP to abstract the background signal from the results. For determination of IC50 values, the relative luminescence units per second (RLU/s) were blotted against the inhibitor concentrations. In doing so each concentration measurement was done triplicate and at least 5 different inhibitor concentrations were used to determine IC50 value.
(§7) The following solutions were prepared for the receptor-tyrosine-kinase assay: - PBS (10x) 1 g KCl, 1 g KH2PO4, 40 g NaCl, 13.2 g Na2HPO4, ad 1 l H2O - PBST (1x) PBS 10x + 0,5% Tween20 → diluted 1:10 - substrate poly-Glu-Tyr 4:1 (10mg/ml in PBS) → diluted with PBS to 100µg/ml - kinase buffer 100mM HEPES, 100mM NaCl, 0.1mM Na3VO4 - kinase solution kinase buffer, kinase stock solution diluted to reach the following concentration defined in the table Table "kinase dilution" […]

Flt-4 (VEGFR3) = biological target: T2, Flt-4 (VEGFR3) (Homo sapiens, UniProt P35916); assay: RTK-Assay (ELISA, chemiluminescence); assay type: biochemical; conditions: read-out: IC50 Flt-4 (VEGFR 3)
T2 construct: GST (N); purchased Biomol
T2 sequence (P35916 25-1363, species assumed): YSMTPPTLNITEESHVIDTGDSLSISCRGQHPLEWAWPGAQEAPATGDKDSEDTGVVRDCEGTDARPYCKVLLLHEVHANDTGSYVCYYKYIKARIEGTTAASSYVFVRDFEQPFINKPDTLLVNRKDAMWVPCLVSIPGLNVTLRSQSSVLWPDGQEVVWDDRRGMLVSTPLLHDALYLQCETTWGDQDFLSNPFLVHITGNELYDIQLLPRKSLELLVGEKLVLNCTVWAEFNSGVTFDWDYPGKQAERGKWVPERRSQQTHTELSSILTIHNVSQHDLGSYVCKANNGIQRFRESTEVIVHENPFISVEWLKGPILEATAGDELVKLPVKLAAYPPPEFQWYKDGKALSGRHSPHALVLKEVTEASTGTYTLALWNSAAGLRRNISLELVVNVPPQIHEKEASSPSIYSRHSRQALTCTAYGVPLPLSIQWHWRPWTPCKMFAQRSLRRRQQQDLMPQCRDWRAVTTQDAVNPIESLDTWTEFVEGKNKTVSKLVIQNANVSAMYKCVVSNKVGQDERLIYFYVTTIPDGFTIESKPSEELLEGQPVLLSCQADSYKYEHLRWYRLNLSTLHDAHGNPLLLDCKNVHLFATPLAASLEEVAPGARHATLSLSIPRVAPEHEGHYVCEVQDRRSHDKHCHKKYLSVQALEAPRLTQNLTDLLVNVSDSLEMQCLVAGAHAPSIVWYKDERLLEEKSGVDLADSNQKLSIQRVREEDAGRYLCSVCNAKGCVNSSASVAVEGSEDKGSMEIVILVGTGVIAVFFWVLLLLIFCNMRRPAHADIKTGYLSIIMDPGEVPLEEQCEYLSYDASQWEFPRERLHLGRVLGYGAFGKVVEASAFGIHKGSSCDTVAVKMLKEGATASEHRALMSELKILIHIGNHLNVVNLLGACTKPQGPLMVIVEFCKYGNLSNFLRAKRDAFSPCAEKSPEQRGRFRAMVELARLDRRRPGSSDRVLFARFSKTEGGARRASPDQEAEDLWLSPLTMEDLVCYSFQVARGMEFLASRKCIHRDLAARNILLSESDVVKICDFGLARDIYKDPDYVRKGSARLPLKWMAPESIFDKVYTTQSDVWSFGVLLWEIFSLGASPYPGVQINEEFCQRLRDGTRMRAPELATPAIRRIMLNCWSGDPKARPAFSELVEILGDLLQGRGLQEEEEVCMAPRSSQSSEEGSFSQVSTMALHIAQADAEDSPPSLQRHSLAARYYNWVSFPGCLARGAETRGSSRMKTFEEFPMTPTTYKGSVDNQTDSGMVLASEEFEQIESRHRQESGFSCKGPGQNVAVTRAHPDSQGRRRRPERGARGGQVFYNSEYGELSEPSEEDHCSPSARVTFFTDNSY
Procedure: as §1, §2, §3, §4, §5, §6, §7

IGFR = biological target: T3, IGFR (Homo sapiens, UniProt P08069); assay: RTK-Assay (ELISA, chemiluminescence); assay type: biochemical
T3 construct: GST (N); purchased Biomol
T3 sequence (P08069 31-1367): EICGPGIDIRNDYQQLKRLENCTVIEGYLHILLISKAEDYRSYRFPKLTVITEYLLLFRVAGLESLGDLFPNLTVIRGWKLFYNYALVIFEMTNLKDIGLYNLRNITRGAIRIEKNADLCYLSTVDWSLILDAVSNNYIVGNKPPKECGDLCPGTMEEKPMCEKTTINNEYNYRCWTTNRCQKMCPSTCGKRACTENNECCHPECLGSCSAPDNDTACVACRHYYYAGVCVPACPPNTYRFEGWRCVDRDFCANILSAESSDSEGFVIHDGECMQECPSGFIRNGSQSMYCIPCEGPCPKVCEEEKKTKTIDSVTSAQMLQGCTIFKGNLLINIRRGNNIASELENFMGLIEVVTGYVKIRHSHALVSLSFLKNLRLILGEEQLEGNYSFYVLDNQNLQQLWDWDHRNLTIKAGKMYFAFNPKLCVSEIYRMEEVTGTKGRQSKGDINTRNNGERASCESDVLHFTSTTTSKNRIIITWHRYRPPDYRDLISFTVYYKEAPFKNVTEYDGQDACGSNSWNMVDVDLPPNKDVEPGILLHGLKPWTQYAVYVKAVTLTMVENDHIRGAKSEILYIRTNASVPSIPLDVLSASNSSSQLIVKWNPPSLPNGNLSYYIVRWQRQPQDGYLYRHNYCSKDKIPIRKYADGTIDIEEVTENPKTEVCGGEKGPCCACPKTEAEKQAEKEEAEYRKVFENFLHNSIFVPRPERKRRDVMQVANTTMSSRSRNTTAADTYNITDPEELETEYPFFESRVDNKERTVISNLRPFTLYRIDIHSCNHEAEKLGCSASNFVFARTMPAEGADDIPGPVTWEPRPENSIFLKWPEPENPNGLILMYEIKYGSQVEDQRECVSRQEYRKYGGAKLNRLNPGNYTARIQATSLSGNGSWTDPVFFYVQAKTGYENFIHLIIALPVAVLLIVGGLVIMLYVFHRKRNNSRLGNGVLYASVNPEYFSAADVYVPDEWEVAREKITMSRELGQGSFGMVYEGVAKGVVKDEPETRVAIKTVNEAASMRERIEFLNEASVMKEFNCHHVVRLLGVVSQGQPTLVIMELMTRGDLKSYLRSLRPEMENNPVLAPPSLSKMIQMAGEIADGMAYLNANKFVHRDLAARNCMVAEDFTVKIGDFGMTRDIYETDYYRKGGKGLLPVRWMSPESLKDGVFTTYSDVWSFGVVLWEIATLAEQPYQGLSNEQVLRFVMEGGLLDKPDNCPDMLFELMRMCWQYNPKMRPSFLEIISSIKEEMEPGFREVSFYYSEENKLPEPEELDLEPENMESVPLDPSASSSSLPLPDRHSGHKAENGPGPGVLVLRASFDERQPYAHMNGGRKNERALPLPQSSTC
Procedure: as §1, §2, §3, §4, §5, §6, §7

Tie2 = biological target: T4, Tie2 (Homo sapiens, UniProt Q02763); assay: RTK-Assay (ELISA, chemiluminescence); assay type: biochemical; conditions: read-out: IC50 Tie-2
T4 construct: GST (N); purchased Biomol
T4 sequence (Q02763 23-1124, species assumed): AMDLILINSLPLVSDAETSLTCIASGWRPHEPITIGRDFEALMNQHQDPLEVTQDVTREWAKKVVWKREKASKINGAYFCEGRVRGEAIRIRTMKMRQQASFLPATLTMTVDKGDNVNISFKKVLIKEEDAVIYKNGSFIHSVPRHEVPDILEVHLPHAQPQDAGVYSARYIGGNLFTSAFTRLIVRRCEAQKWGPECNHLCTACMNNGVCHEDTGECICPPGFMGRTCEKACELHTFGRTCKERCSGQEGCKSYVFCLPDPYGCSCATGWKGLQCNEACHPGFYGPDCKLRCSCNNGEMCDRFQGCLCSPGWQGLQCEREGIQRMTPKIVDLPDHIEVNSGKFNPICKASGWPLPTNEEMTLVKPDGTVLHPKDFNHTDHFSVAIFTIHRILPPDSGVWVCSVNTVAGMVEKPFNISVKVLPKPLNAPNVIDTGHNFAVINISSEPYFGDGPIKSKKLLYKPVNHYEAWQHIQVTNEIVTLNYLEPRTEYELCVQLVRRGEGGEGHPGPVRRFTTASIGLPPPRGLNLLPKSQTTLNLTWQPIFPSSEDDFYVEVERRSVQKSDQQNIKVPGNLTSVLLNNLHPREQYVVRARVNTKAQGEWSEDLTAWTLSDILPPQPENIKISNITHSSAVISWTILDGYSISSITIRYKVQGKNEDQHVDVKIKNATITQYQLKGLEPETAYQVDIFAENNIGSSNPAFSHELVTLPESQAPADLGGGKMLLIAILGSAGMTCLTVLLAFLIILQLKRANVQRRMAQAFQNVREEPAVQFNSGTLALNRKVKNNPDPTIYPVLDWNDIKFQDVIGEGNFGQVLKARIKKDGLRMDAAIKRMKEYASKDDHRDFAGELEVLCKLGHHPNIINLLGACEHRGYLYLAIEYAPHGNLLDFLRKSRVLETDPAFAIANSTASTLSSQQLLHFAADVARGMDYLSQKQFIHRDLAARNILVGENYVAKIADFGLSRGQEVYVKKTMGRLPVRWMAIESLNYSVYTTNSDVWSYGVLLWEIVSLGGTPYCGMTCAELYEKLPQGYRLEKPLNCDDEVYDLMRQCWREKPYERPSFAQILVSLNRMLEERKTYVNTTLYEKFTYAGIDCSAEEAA
Procedure: as §1, §2, §3, §4, §5, §6, §7

[1] = test system: H2B-GFP/mRFP-αTubulin HeLa cells; assay: Time-lapse video microscopy of live cells; assay type: cell-based, human; conditions: 40 µM
Procedure: Upon treatment, living cells were added to a humidified chamber at 37 °C with 5% CO2 attached to a Carl Zeiss microscope (SN:3834000366) equipped with a Hamamatsu EM-CCD digital camera, controlled by AxioVision 4.6 software. Cells were imaged every 3 or 4.5 min (depending on the number of fields filmed) for over 16 h-24 h. Images were taken with the AxioCam MRm 426205 objective and processed using AxioVision software.
The increase in the proportion of cells with more than 2n DNA content could be due to several causes: several cycles of DNA replication or cytokinesis errors as shown for cells treated with other Aurora inhibitors. To determine the primary cause for the phenotype produced by (C) and examine whether (A) may interfere with mitosis, we examined live cells by time-lapse video microscopy. To visualize DNA and microtubules we used a HeLa stable cell line expressing H2B-GFP and mRFP-αTubulin. […] The resulting time-lapse images were used to determine the following parameters: (1) the percentage of cell death among non dividing cells (Figure 4A), (2) the percentage of cells entering mitosis (Figure 4B), (3) the outcome of mitosis: normal division (cell division), return to interphase without chromatin segregation and without dividing (no division), cytokinesis failure (division errors), cell death without resolving mitosis (cell death) (Figure 4C), and (4) the length of time spent in mitosis (TIM), defined as the interval between DNA condensation and anaphase resolution (Figure 4D).

T1 sequence (P00533 25-1210, species assumed): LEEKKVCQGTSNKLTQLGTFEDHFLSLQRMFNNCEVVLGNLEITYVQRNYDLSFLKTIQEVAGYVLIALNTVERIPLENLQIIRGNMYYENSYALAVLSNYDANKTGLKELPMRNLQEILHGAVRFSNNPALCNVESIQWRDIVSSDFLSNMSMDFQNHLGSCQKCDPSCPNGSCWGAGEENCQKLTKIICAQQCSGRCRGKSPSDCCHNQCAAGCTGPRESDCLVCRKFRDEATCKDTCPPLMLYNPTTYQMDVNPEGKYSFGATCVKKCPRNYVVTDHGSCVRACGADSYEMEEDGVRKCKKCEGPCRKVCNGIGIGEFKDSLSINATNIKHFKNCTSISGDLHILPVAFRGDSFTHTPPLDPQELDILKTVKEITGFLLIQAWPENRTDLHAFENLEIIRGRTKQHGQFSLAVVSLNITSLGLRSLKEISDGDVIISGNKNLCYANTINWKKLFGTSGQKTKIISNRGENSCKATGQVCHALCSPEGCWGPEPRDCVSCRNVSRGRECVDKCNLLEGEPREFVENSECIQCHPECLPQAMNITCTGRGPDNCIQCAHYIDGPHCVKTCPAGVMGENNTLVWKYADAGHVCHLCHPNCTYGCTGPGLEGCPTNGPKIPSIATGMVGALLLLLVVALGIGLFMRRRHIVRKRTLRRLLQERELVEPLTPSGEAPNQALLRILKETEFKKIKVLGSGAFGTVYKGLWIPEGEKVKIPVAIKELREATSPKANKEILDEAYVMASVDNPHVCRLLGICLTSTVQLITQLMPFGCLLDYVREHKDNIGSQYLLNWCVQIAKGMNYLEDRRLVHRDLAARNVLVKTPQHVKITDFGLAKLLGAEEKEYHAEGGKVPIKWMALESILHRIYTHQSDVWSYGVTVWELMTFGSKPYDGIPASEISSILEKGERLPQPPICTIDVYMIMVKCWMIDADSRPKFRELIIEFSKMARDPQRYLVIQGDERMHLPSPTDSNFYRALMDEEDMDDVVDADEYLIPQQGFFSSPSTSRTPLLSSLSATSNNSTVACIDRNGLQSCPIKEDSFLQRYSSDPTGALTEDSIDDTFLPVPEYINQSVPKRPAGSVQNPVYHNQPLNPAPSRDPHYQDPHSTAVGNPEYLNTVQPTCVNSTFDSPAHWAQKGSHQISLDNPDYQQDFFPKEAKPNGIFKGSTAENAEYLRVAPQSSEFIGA

**Q.** For `CC(C)Nc1nc(-c2ccco2)nc2ccc(/C=C/C(C)(C)O)cc12` [Compound (A), (E)-4-(2-(Furan-2-yl)-4-(isopropylamino)quinazolin-6-yl)-2-methylbut-3-en-2-ol], which IC50 (EGFR) is on record?
**A.** > 100 µM

**Q.** What about the IC50 (Flt-4 (VEGFR3)) of the same molecule?
**A.** 4.24 µM

**Q.** And the IC50 (IGFR)?
**A.** 41.5 µM

**Q.** What about the IC50 (Tie2) of the same molecule?
**A.** > 100 µM

**Q.** What about the “cell death among non dividing cells / cell viability” value [1] of the same molecule?
**A.** increased cell death rate; also recorded: massive cell death; also recorded: strong effect on cell viability independent of mitosis

**Q.** What about the outcome of mitosis [1] of the same molecule?
**A.** completed it successfully

**Q.** What does the source list for `CC(C)Nc1nc(-c2ccco2)nc2ccc(C#CCO)cc12` [Compound (C), 3-(2-(Furan-2-yl)-4-(isoiproipylamino)quinazolin-6-yl)prop-2-yn-l-ol]?
**A.** IC50 (EGFR): > 100 µM; IC50 (Flt-4 (VEGFR3)): > 100 µM; IC50 (IGFR): > 100 µM; IC50 (Tie2): > 100 µM; outcome of mitosis [1]: unable to align their chromosomes and died without entering a new interphase; also recorded: died without returning to interphase or right after an asymmetric segregation; time spent in mitosis (TIM), median [1]: 375 min; number of cells entering mitosis ([1]; 16 h-24 h): reduced; cells entered mitosis ([1]; time-lapse video microscopy): 28.8%
